Molecular target: T1, PGE2 receptor EP2 subtype (Mus musculus, UniProt Q62053)
T1 construct: gene Ptger2; endogenous receptor in Neuro-2a cells
Assay: TR-FRET cAMP assay in Neuro-2a cells (agonist dose-response)
Assay type: cell-based

T1 sequence (Q62053 whole entry): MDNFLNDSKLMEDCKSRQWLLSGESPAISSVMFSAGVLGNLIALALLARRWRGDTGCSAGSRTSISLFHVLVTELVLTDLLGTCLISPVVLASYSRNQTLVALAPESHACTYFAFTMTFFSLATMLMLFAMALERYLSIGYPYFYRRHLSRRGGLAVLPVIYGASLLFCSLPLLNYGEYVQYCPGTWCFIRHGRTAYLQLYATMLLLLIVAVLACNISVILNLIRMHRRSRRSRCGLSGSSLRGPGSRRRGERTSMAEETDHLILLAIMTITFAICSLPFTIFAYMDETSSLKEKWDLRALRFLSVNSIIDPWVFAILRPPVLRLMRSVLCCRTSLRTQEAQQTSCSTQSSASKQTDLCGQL

- EC50: 80 nM
SMILES: CCCC1([C@H](O)C/C=C/[C@H]2[C@H](O)CC(=O)[C@@H]2CCCCCCC(=O)OC)CCC1 [butaprost]

— article PMC5573328, “Cyclooxygenase-2 contributes to oxidopamine-mediated neuronal inflammation and injury via the prostaglandin E2 receptor EP2 subtype” (Scientific Reports, 2017)
